ChEMBL document CHEMBL1153245, “A profile of the in vitro anti-tumor activity of imidazolium-based ionic liquids” (2010)

Key:
Assay type in all cases: functional
SF-295 = experiment: Anticancer activity against human SF295 cells assessed cell growth at 10 uM after 48 hrs by sulforhodamine B assay relative to control
NCI-H522 = experiment: Anticancer activity against human NCI-H522 cells assessed cell growth at 10 uM after 48 hrs by sulforhodamine B assay relative to control
NCI-H23 = experiment: Anticancer activity against human NCI-H23 cells assessed cell growth at 10 uM after 48 hrs by sulforhodamine B assay relative to control
SF-539 = experiment: Anticancer activity against human SF539 cells assessed cell growth at 10 uM after 48 hrs by sulforhodamine B assay relative to control
LOX IMVI = experiment: Anticancer activity against human LOXIMVI cells assessed cell growth at 10 uM after 48 hrs by sulforhodamine B assay relative to control
OVCAR-3 = experiment: Anticancer activity against human OVCAR-3 cells assessed cell growth at 10 uM after 48 hrs by sulforhodamine B assay relative to control
COLO 205 = experiment: Anticancer activity against human COLO205 cells assessed cell growth at 10 uM after 48 hrs by sulforhodamine B assay relative to control
UACC-62 = experiment: Anticancer activity against human UACC62 cells assessed cell growth at 10 uM after 48 hrs by sulforhodamine B assay relative to control
KM12 = experiment: Anticancer activity against human KM12 cells assessed cell growth at 10 uM after 48 hrs by sulforhodamine B assay relative to control
SNB-19 = experiment: Anticancer activity against human SNB19 cells assessed cell growth at 10 uM after 48 hrs by sulforhodamine B assay relative to control
A498 = experiment: Anticancer activity against human A498 cells assessed cell growth at 10 uM after 48 hrs by sulforhodamine B assay relative to control
HCT-15 = experiment: Anticancer activity against human HCT15 cells assessed cell growth at 10 uM after 48 hrs by sulforhodamine B assay relative to control
HCC 2998 = experiment: Anticancer activity against human HCC2998 cells assessed cell growth at 10 uM after 48 hrs by sulforhodamine B assay relative to control
PC-3 = experiment: Anticancer activity against human PC3 cells assessed cell growth at 10 uM after 48 hrs by sulforhodamine B assay relative to control
SK-MEL-5 = experiment: Anticancer activity against human SK-MEL-5 cells assessed cell growth at 10 uM after 48 hrs by sulforhodamine B assay relative to control
SK-MEL-2 = experiment: Anticancer activity against human SK-MEL-2 cells assessed cell growth at 10 uM after 48 hrs by sulforhodamine B assay relative to control
HT-29 = experiment: Anticancer activity against human HT-29 cells assessed cell growth at 10 uM after 48 hrs by sulforhodamine B assay relative to control
TK-10 = experiment: Anticancer activity against human TK10 cells assessed cell growth at 10 uM after 48 hrs by sulforhodamine B assay relative to control
NCI-H322M = experiment: Anticancer activity against human NCI-H322M cells assessed cell growth at 10 uM after 48 hrs by sulforhodamine B assay relative to control
NCI/ADR-RES = experiment: Anticancer activity against human NCI/ADR-RES cells assessed cell growth at 10 uM after 48 hrs by sulforhodamine B assay relative to control
CAKI-1 = experiment: Anticancer activity against human Caki1 cells assessed cell growth at 10 uM after 48 hrs by sulforhodamine B assay relative to control
[1] = Anticancer activity against human RPMI8266 cells assessed cell growth at 10 uM after 48 hrs by sulforhodamine B assay relative to control
M14 = experiment: Anticancer activity against human M14 cells assessed cell growth at 10 uM after 48 hrs by sulforhodamine B assay relative to control
IGROV-1 = experiment: Anticancer activity against human IGROV1 cells assessed cell growth at 10 uM after 48 hrs by sulforhodamine B assay relative to control
T47D = experiment: Anticancer activity against human T47D cells assessed cell growth at 10 uM after 48 hrs by sulforhodamine B assay relative to control
UO-31 = experiment: Anticancer activity against human UO31 cells assessed cell growth at 10 uM after 48 hrs by sulforhodamine B assay relative to control
NCI-H460 = experiment: Anticancer activity against human NCI-H460 cells assessed cell growth at 10 uM after 48 hrs by sulforhodamine B assay relative to control
HOP-92 = experiment: Anticancer activity against human HOP92 cells assessed cell growth at 10 uM after 48 hrs by sulforhodamine B assay relative to control
MDA-MB-468 = experiment: Anticancer activity against human MDA-MB-468 cells assessed cell growth at 10 uM after 48 hrs by sulforhodamine B assay relative to control
SK-OV-3 = experiment: Anticancer activity against human SKOV3 cells assessed cell growth at 10 uM after 48 hrs by sulforhodamine B assay relative to control
BT-549 = experiment: Anticancer activity against human BT549 cells assessed cell growth at 10 uM after 48 hrs by sulforhodamine B assay relative to control
SNB-75 = experiment: Anticancer activity against human SNB75 cells assessed cell growth at 10 uM after 48 hrs by sulforhodamine B assay relative to control
SK-MEL-28 = experiment: Anticancer activity against human SK-MEL-28 cells assessed cell growth at 10 uM after 48 hrs by sulforhodamine B assay relative to control
A549 = experiment: Anticancer activity against human A549 cells assessed cell growth at 10 uM after 48 hrs by sulforhodamine B assay relative to control
OVCAR-5 = experiment: Anticancer activity against human OVCAR5 cells assessed cell growth at 10 uM after 48 hrs by sulforhodamine B assay relative to control
HCT-116 = experiment: Anticancer activity against human HCT116 cells assessed cell growth at 10 uM after 48 hrs by sulforhodamine B assay relative to control
UACC-257 = experiment: Anticancer activity against human UACC257 cells assessed cell growth at 10 uM after 48 hrs by sulforhodamine B assay relative to control
OVCAR-4 = experiment: Anticancer activity against human OVCAR4 cells assessed cell growth at 10 uM after 48 hrs by sulforhodamine B assay relative to control
OVCAR-8 = experiment: Anticancer activity against human OVCAR8 cells assessed cell growth at 10 uM after 48 hrs by sulforhodamine B assay relative to control
MDA-MB-231 = experiment: Anticancer activity against human MDA-MB-231 cells assessed cell growth at 10 uM after 48 hrs by sulforhodamine B assay relative to control
U-251 = experiment: Anticancer activity against human U251 cells assessed cell growth at 10 uM after 48 hrs by sulforhodamine B assay relative to control
SN12C = experiment: Anticancer activity against human SN12C cells assessed cell growth at 10 uM after 48 hrs by sulforhodamine B assay relative to control
HOP-62 = experiment: Anticancer activity against human HOP62 cells assessed cell growth at 10 uM after 48 hrs by sulforhodamine B assay relative to control

CCCCCCCCCCCCCCCCCC[n+]1ccn(C)c1.O=S(=O)([N-]S(=O)(=O)C(F)(F)F)C(F)(F)F
Activity (SF-295): -21.51% | Activity (NCI-H522): -74.3% | Activity (NCI-H23): -44.29% | Activity (SF-539): -82.94% | Activity (LOX IMVI): -52.24% | Activity (OVCAR-3): -56.27% | Activity (COLO 205): -47.26% | Activity (UACC-62): -82.14% | Activity (KM12): -61.9% | Activity (SNB-19): -68% | Activity (A498): -44.9% | Activity (HCT-15): -54.83% | Activity (HCC 2998): -80.86% | Activity (PC-3): -62.3% | Activity (SK-MEL-5): -74.13% | Activity (SK-MEL-2): -51.69% | Activity (HT-29): -36.79% | Activity (TK-10): -72.43% | Activity (NCI-H322M): 6.16% | Activity (NCI/ADR-RES): -7.98% | Activity (CAKI-1): -78.63% | Activity [1]: 75.58% | Activity (M14): -30.74% | Activity (IGROV-1): -43.09% | Activity (T47D): 16.98% | Activity (UO-31): -66.09% | Activity (NCI-H460): -51.32% | Activity (HOP-92): -66.2% | Activity (MDA-MB-468): -20.4% | Activity (SK-OV-3): -9.16% | Activity (BT-549): -54.97% | Activity (SNB-75): -55.13% | Activity (SK-MEL-28): -52.79% | Activity (A549): -47.24% | Activity (OVCAR-5): -59.68% | Activity (HCT-116): -51.46% | Activity (UACC-257): -47.9% | Activity (OVCAR-4): -13.29% | Activity (OVCAR-8): -37.35% | Activity (MDA-MB-231): -80.16% | Activity (U-251): -63.9% | Activity (SN12C): -68.39% | Activity (HOP-62): -74.14%

CCCCCC[n+]1ccn(C)c1.FC(F)(F)C(F)(F)[P-](F)(F)(F)(C(F)(F)C(F)(F)F)C(F)(F)C(F)(F)F
Activity (SF-295): 70.02% | Activity (NCI-H522): 58.3% | Activity (NCI-H23): 45.51% | Activity (SF-539): 75.55% | Activity (LOX IMVI): 59.38% | Activity (OVCAR-3): 94.84% | Activity (COLO 205): 97.72% | Activity (UACC-62): 68.28% | Activity (KM12): 91.54% | Activity (SNB-19): 82.22% | Activity (A498): 75.58% | Activity (HCT-15): 91.62% | Activity (HCC 2998): 76.85% | Activity (PC-3): 86.43% | Activity (SK-MEL-5): 51.37% | Activity (SK-MEL-2): 47.53% | Activity (HT-29): 66.89% | Activity (TK-10): 67.04% | Activity (NCI-H322M): 77.95% | Activity (NCI/ADR-RES): 54.24% | Activity (CAKI-1): 53.43% | Activity [1]: 53.67% | Activity (M14): 88.81% | Activity (IGROV-1): 78.12% | Activity (T47D): 55.53% | Activity (UO-31): 71.06% | Activity (NCI-H460): 51.46% | Activity (HOP-92): 85.4% | Activity (MDA-MB-468): 39.66% | Activity (SK-OV-3): 85.24% | Activity (BT-549): 54.78% | Activity (SNB-75): 88.07% | Activity (SK-MEL-28): 100.39% | Activity (A549): 56.87% | Activity (OVCAR-5): 105.17% | Activity (HCT-116): 32.03% | Activity (UACC-257): 34.16% | Activity (OVCAR-4): 59.66% | Activity (OVCAR-8): 60.84% | Activity (MDA-MB-231): 73.1% | Activity (U-251): 78.65% | Activity (SN12C): 87.26% | Activity (HOP-62): 88.12%

CCCCCCCCCCCCCCCC[n+]1ccn(C)c1.[Cl-]
Activity (SF-295): -39.48% | Activity (NCI-H522): -87.38% | Activity (NCI-H23): -51.9% | Activity (SF-539): -98.59% | Activity (LOX IMVI): -50.37% | Activity (OVCAR-3): -24.76% | Activity (COLO 205): -45.99% | Activity (UACC-62): -94.58% | Activity (KM12): -83.88% | Activity (SNB-19): -75.88% | Activity (A498): -65.31% | Activity (HCT-15): 9.85% | Activity (HCC 2998): -94.43% | Activity (PC-3): -100% | Activity (SK-MEL-5): -95.2% | Activity (SK-MEL-2): -64.47% | Activity (HT-29): -100% | Activity (TK-10): -80.37% | Activity (NCI-H322M): 8.28% | Activity (NCI/ADR-RES): 37.13% | Activity (CAKI-1): -83.54% | Activity [1]: 15.77% | Activity (M14): -73.7% | Activity (IGROV-1): -67.13% | Activity (T47D): -0.13% | Activity (UO-31): -85.85% | Activity (NCI-H460): -87.94% | Activity (HOP-92): -80.2% | Activity (MDA-MB-468): -78.99% | Activity (SK-OV-3): -33.78% | Activity (BT-549): -65.21% | Activity (SNB-75): -98.62% | Activity (SK-MEL-28): -86.22% | Activity (A549): -50.92% | Activity (OVCAR-5): -67.51% | Activity (HCT-116): -87.23% | Activity (UACC-257): -61.13% | Activity (OVCAR-4): -54.83% | Activity (OVCAR-8): -53.71% | Activity (MDA-MB-231): -93.87% | Activity (U-251): -69.96% | Activity (SN12C): -94.61% | Activity (HOP-62): -82.71%
